According to ChEMBL document CHEMBL3297657, “Synthesis and antitumor activities of novel α-aminophosphonate derivatives containing an alizarin moiety” (Eur J Med Chem, 2014):
The source made the active and inactive calls. The rule behind the calls is not given here.

Legend:
CNE = assay: Cytotoxicity against human CNE cells after 48 hrs by MTT assay; assay type: functional, cell-based
KB = assay: Cytotoxicity against human KB cells after 48 hrs by MTT assay; assay type: functional, cell-based
NCI-H460 [1] = assay: Induction of apoptosis in human NCI-H460 cells assessed as change in mitochondrial membrane potential at 8 uM after 12 to 48 hrs by JC-1 staining-based fluorescence microscopy relative to control; assay type: functional, cell-based
NCI-H460 [2] = assay: Induction of apoptosis in human NCI-H460 cells assessed as change in mitochondrial membrane potential after 24 hrs by JC-1 staining-based fluorescence microscopy relative to control; assay type: functional, cell-based
NCI-H460 [3] = assay: Induction of apoptosis in human NCI-H460 cells assessed as karyopyknosis and chromatin condensation at 8 uM by Hoechst 33258 staining-based fluorescence microscopy relative to control; assay type: functional, cell-based; details: TDE = time-dependent effect
NCI-H460 [4] = assay: Induction of apoptosis in human NCI-H460 cells assessed as early apoptotic cells at 8 uM after 24 hrs by Annexin V/propidium iodide staining-based flow cytometry (reference value: 6.8%); assay type: functional
NCI-H460 [5] = assay: Induction of apoptosis in human NCI-H460 cells assessed as early apoptotic cells at 8 uM after 48 hrs by Annexin V/propidium iodide staining-based flow cytometry (reference value: 6.8%); assay type: functional
NCI-H460 [6] = assay: Induction of apoptosis in human NCI-H460 cells assessed as late apoptotic cells at 5 uM after 24 hrs by Annexin V/propidium iodide staining-based flow cytometry (reference value: 14.1%); assay type: functional
NCI-H460 [7] = assay: Induction of apoptosis in human NCI-H460 cells assessed as late apoptotic cells at 10 uM after 24 hrs by Annexin V/propidium iodide staining-based flow cytometry (reference value: 14.1%); assay type: functional
NCI-H460 [8] = assay: Induction of apoptosis in human NCI-H460 cells assessed as necrotic cells at 8 uM after 48 hrs by Annexin V/propidium iodide staining-based flow cytometry (reference value: 6.9%); assay type: functional
NCI-H460 [9] = assay: Induction of apoptosis in human NCI-H460 cells assessed as necrotic cells at 5 uM after 24 hrs by Annexin V/propidium iodide staining-based flow cytometry (reference value: 6.9%); assay type: functional
NCI-H460 [10] = assay: Induction of apoptosis in human NCI-H460 cells assessed as necrotic cells at 10 uM after 24 hrs by Annexin V/propidium iodide staining-based flow cytometry (reference value: 6.9%); assay type: functional
NCI-H460 [11] = assay: Induction of apoptosis in human NCI-H460 cells assessed as viable cells at 8 uM after 12 hrs by Annexin V/propidium iodide staining-based flow cytometry (reference value: 72.2%); assay type: functional; details: NCI-H460, 12 h, read-out: Activity
NCI-H460 [12] = assay: Induction of apoptosis in human NCI-H460 cells assessed as viable cells at 8 uM after 48 hrs by Annexin V/propidium iodide staining-based flow cytometry (reference value: 72.2%); assay type: functional; details: NCI-H460, 48 h, read-out: Activity
NCI-H460 [13] = assay: Induction of apoptosis in human NCI-H460 cells assessed as viable cells at 5 uM after 24 hrs by Annexin V/propidium iodide staining-based flow cytometry (reference value: 72.2%); assay type: functional; details: NCI-H460, 24 h, read-out: Activity
NCI-H460 [14] = assay: Induction of apoptosis in human NCI-H460 cells assessed as early apoptotic cells at 8 uM by Annexin V/propidium iodide staining-based flow cytometry; assay type: functional, cell-based; details: TDE = time-dependent effect
NCI-H460 [15] = assay: Induction of apoptosis in human NCI-H460 cells assessed as late apoptotic cells at 8 uM by Annexin V/propidium iodide staining-based flow cytometry; assay type: functional, cell-based; details: TDE = time-dependent effect
NCI-H460 [16] = assay: Induction of apoptosis in human NCI-H460 cells assessed as necrotic cells at 8 uM by Annexin V/propidium iodide staining-based flow cytometry; assay type: functional, cell-based; details: TDE = time-dependent effect
NCI-H460 [17] = assay: Induction of apoptosis in human NCI-H460 cells assessed as viable cells after 24 hrs by Annexin V/propidium iodide staining-based flow cytometry; assay type: functional, cell-based
NCI-H460 [18] = assay: Induction of apoptosis in human NCI-H460 cells assessed as viable cells at 8 uM by Annexin V/propidium iodide staining-based flow cytometry; assay type: functional, cell-based; details: TDE = time-dependent effect
NCI-H460 [19] = assay: Cell cycle arrest in human NCI-H460 cells assessed as accumulation at G1 phase at 5 uM after 48 hrs by Rnase A/propidium iodide staining-based flow cytometry (reference value: 46.69%); assay type: functional
NCI-H460 [20] = assay: Cell cycle arrest in human NCI-H460 cells assessed as accumulation at G1 phase at 10 uM after 48 hrs by Rnase A/propidium iodide staining-based flow cytometry (reference value: 46.69%); assay type: functional
NCI-H460 [21] = assay: Cell cycle arrest in human NCI-H460 cells assessed as accumulation at S phase at 8 uM after 48 hrs by Rnase A/propidium iodide staining-based flow cytometry (reference value: 19.41%); assay type: functional
NCI-H460 [22] = assay: Cell cycle arrest in human NCI-H460 cells assessed as accumulation at S phase at 10 uM after 48 hrs by Rnase A/propidium iodide staining-based flow cytometry (reference value: 19.41%); assay type: functional
NCI-H460 [23] = assay: Cell cycle arrest in human NCI-H460 cells assessed as accumulation at S phase at 20 uM after 48 hrs by Rnase A/propidium iodide staining-based flow cytometry (reference value: 19.41%); assay type: functional
NCI-H460 [24] = assay: Cell cycle arrest in human NCI-H460 cells assessed as accumulation at G2 phase at 8 uM after 24 hrs by Rnase A/propidium iodide staining-based flow cytometry (reference value: 33.9%); assay type: functional
NCI-H460 [25] = assay: Cell cycle arrest in human NCI-H460 cells assessed as accumulation at G2 phase at 10 uM after 48 hrs by Rnase A/propidium iodide staining-based flow cytometry (reference value: 33.9%); assay type: functional
NCI-H460 [26] = assay: Cell cycle arrest in human NCI-H460 cells assessed as accumulation at G2 phase at 20 uM after 48 hrs by Rnase A/propidium iodide staining-based flow cytometry (reference value: 33.9%); assay type: functional
NCI-H460 [27] = assay: Induction of apoptosis in human NCI-H460 cells assessed as caspase-4 activation after 24 hrs by qRT-PCR analysis; assay type: functional, cell-based
NCI-H460 [28] = assay: Induction of apoptosis in human NCI-H460 cells assessed as upregulation of TP53 mRNA expression after 24 hrs by qRT-PCR analysis; assay type: functional, cell-based
NCI-H460 [29] = assay: Induction of apoptosis in human NCI-H460 cells assessed as upregulation of CAMK1 mRNA expression after 24 hrs by qRT-PCR analysis; assay type: functional, cell-based
NCI-H460 [30] = assay: Induction of apoptosis in human NCI-H460 cells assessed as upregulation of CAMK2 mRNA expression after 24 hrs by qRT-PCR analysis; assay type: functional, cell-based
NCI-H460 [31] = assay: Induction of apoptosis in human NCI-H460 cells assessed as upregulation of AIF mRNA expression after 24 hrs by qRT-PCR analysis; assay type: functional, cell-based
NCI-H460 [32] = assay: Induction of apoptosis in human NCI-H460 cells assessed as upregulation of cytochrome C mRNA expression after 24 hrs by qRT-PCR analysis; assay type: functional, cell-based
NCI-H460 [33] = assay: Induction of apoptosis in human NCI-H460 cells assessed as increase in intracellular ROS generation at 5 to 20 uM after 24 hrs by DCFH-DA staining-based fluorescence microscopy; assay type: functional, cell-based
NCI-H460 [34] = assay: Induction of apoptosis in human NCI-H460 cells assessed as increase in intracellular calcium release at 5 to 20 uM after 24 hrs by Fluo-3/AM staining-based fluorescence microscopy; assay type: functional, cell-based
HCT-116 = assay: cells; details: Homo sapiens, HCT-116, 48 h
Description: Cytotoxicity against human HCT116 cells after 48 hrs by MTT assay

Row | Structure (SMILES) | IC50 (CNE) [µM] | IC50 (KB) [µM] | Activity (NCI-H460 [1]) | Activity (NCI-H460 [2]) | Activity (NCI-H460 [3]) | Activity (NCI-H460 [4]) [%] | Activity (NCI-H460 [5]) [%] | Activity (NCI-H460 [6]) [%] | Activity (NCI-H460 [7]) [%] | Activity (NCI-H460 [8]) [%] | Activity (NCI-H460 [9]) [%] | Activity (NCI-H460 [10]) [%] | viability at 8 µM (NCI-H460 [11]) [%] | viability at 8 µM (NCI-H460 [12]) [%] | viability at 5 µM (NCI-H460 [13]) [%] | Activity (NCI-H460 [14]) | Activity (NCI-H460 [15]) | Activity (NCI-H460 [16]) | Activity (NCI-H460 [17]) | Activity (NCI-H460 [18]) | other results
1 | CCOP(=O)(OCC)C(NC(=O)C(C)Oc1ccc2c(c1O)C(=O)c1ccccc1C2=O)c1cccc2ccccc12 (stereo unspecified) | > 50 | 1.02 | Active | Dose-dependent effect | tde | 36.6 | 54.9 | 16.3 | 18.6 | 3.7 | 1.4 | 1.1 | 70.9 | 26.6 | 71.4 | tde | tde | tde | Dose-dependent effect | tde | Activity (NCI-H460 [19]): 57.2%; Activity (NCI-H460 [20]): 59.86%; Activity (NCI-H460 [21]): 0.41%; Activity (NCI-H460 [22]): 15.41%; Activity (NCI-H460 [23]): 17.06%; Activity (NCI-H460 [24]): 32.56%; Activity (NCI-H460 [25]): 24.74%; Activity (NCI-H460 [26]): 21.34%; Activity (NCI-H460 [27]): Dose-dependent effect; Activity (NCI-H460 [28]): Dose-dependent effect; Activity (NCI-H460 [29]): Dose-dependent effect; Activity (NCI-H460 [30]): Dose-dependent effect; Activity (NCI-H460 [31]): Dose-dependent effect; Activity (NCI-H460 [32]): Dose-dependent effect; Activity (NCI-H460 [33]): Active; Activity (NCI-H460 [34]): Active; IC50 (HCT-116): 40 µM
2 | CCOP(=O)(OCC)C(NC(=O)C(C)Oc1ccc2c(c1O)C(=O)c1ccccc1C2=O)c1ccccc1OC (stereo unspecified) | 34.2 | 0.88 | Active | Dose-dependent effect | tde | 38.9 | 50.2 | 8.6 | 17.8 | 3.2 | 2.8 | 8.4 | 71.9 | 28.2 | 62.1 | tde | tde | tde | Dose-dependent effect | tde | Activity (NCI-H460 [19]): 56.85%; Activity (NCI-H460 [20]): 60.79%; Activity (NCI-H460 [21]): 8.87%; Activity (NCI-H460 [22]): 9.84%; Activity (NCI-H460 [23]): 11.81%; Activity (NCI-H460 [24]): 21.99%; Activity (NCI-H460 [25]): 29.38%; Activity (NCI-H460 [26]): 23.09%; Activity (NCI-H460 [27]): Dose-dependent effect; Activity (NCI-H460 [28]): Dose-dependent effect; Activity (NCI-H460 [29]): Dose-dependent effect; Activity (NCI-H460 [30]): Dose-dependent effect; Activity (NCI-H460 [31]): Dose-dependent effect; Activity (NCI-H460 [32]): Dose-dependent effect; Activity (NCI-H460 [33]): Active; Activity (NCI-H460 [34]): Active; IC50 (HCT-116): 10.5 µM
3 | CCOP(=O)(OCC)C(NC(=O)C(C)Oc1ccc2c(c1O)C(=O)c1ccccc1C2=O)c1ccccc1F (stereo unspecified) | 30.2 | 0.7 | Active | Dose-dependent effect | tde | 38.8 | 56.4 | 9.2 | 6.8 | 3.2 | 0.3 | 0.8 | 61.3 | 31.1 | 61.6 | tde | tde | tde | Dose-dependent effect | tde | Activity (NCI-H460 [19]): 64.52%; Activity (NCI-H460 [20]): 65.81%; Activity (NCI-H460 [21]): 10.87%; Activity (NCI-H460 [22]): 13.42%; Activity (NCI-H460 [23]): 11.25%; Activity (NCI-H460 [24]): 23.05%; Activity (NCI-H460 [25]): 20.77%; Activity (NCI-H460 [26]): 20.06%; Activity (NCI-H460 [27]): Dose-dependent effect; Activity (NCI-H460 [28]): Dose-dependent effect; Activity (NCI-H460 [29]): Dose-dependent effect; Activity (NCI-H460 [30]): Dose-dependent effect; Activity (NCI-H460 [31]): Dose-dependent effect; Activity (NCI-H460 [32]): Dose-dependent effect; Activity (NCI-H460 [33]): Active; Activity (NCI-H460 [34]): Active; IC50 (HCT-116): 13.3 µM
